The values below are quoted from earlier work in article PMC9947563, “Identification of the molecular determinants of antagonist potency in the allosteric binding pocket of human P2X4” (Frontiers in Pharmacology, 2023).

The subject of data set [1] is hP2X4. As to conditions: read-out: hP2X4 IC50, cited from earlier work.
In data set [2] the test system is rP2X4. The following applies: ref Werner et al. (2019); cited from earlier work.
Data set [3] relates to mP2X4. As to conditions: ref Werner et al. (2019); read-out: mP2X4 IC50; cited from earlier work.

Like-named read-outs stand apart in the source and are kept apart here.

Regarding `CC(C)c1ccc(NC(=S)NC(=O)C23CC4CC(CC(C4)C2)C3)c(Br)c1` [Mahmood-4n], the IC50 – broadly, the midpoint of a concentration-inhibition curve – in data set [1] (ref Mahmood et al. (2022a)) was 40 nM.

As to `O=C(NC(=S)Nc1c(Br)ccc(C(F)(F)F)c1Br)c1ccc2c(c1)OCO2` [Mahmood-9g], the concentration for half-maximal inhibition (IC50) in data set [1] (ref Mahmood et al. (2022b)) was 55 nM. In the case of `Cc1c(-c2cccc(-c3nnn[nH]3)c2)c2[nH]c3ccccc3c2[nH]c1=O` [Sunovion-A], the IC50 in data set [1] (ref Newcom and Spear (2013)) is less than 100 nM.

As for `O=C(C1CC1)N1CCc2cc(Br)c(S(=O)(=O)Nc3ccc(Cl)c(C(F)(F)F)c3)cc21` [Indophagolin], in data set [1] (ref Carnero Corrales et al. (2021)), the IC50 is 140 nM. As to `CC(C)c1ccc(NC(=S)NC(=O)c2ccc3c(c2)OCO3)c(Br)c1` [Mahmood-9o], the half-maximal inhibitory concentration (IC50) in data set [1] (ref Mahmood et al. (2022b)) was 39 nM.

On to `NS(=O)(=O)c1cc(NC(=O)Cc2ccccc2)ccc1Oc1cccc(Cl)c1` [BAY-1797, N-[4-(3-Chlorophenoxy)-3-sulfamoylphenyl]-2-phenylacetamide], for which the half-maximal inhibitory concentration (IC50) was 100 nM in data set [2] and 200 nM in data set [3].
